SMILES strings stand for the structures. “Also recorded” adds a separate entry of the source. Read-outs that look alike come from different tables or passages of the source. Where a SMILES comes first, the peptide text is derived from it. [ ]: non-standard residue; d: D form. The star is where a group is joined. Hexanoyl = CCCCCC(=O)*; Ahx = NCCCCCC(=O)O

One data set relates to c-Met receptor. Briefly: c-Met phosphorylation in acute adult hippocampal slices. The conditions noted are these: 30 minutes. The format is cell-based, rat. The text has this: Adult Sprague-Dawley rats (250 g+) obtained from Harlan Laboratories (Ca, USA) were anesthetized with isofluorane (Vet One™, MWI, Meridian, Id., USA) and decapitated. The brain was rapidly removed and placed into ice-chilled artificial cerebrospinal fluid (aCSF) for approximately 30 s. Both hemispheres were separated by a mid-saggital cut and both hippocampi removed. Slices were sectioned cross- and length-wise (400 μm) to ensure penetrability of the drug, using a Mcllwain tissue chopper (Brinkmann, Gomshall, UK) and transferred to a gassed (95% O2/5% CO2) incubation chamber containing aCSF for 90 minutes at room temperature. Slices were transferred to fresh tubes, aCSF was removed by careful suctioning and replaced with aCSF containing vehicle (aCSF+aCSF), 100 ng/ml with carrier free adult recombinant Hepatocyte Growth Factor (HGF) (R and D Systems, MN, USA) in aCSF, 10^−10 M Hinge (Harding lab), […], 10^−10 M Dihexa (Harding lab) in aCSF, 10^−12 M Dihexa in aCSF or 50 ng/ml HGF+10^−12 M Dihexa in aCSF for 30 minutes at 37° C. with gentle rocking. aCSF was removed and the slices were lysed using RIPA buffer (Upstate/Milipore, Billerica, Mass.) and inhibitor Cocktails I and II (Sigma, St. Louis, Mo.), sonicated on ice and clarified by centrifugation for 30 minutes, 13,000 rpm at 4° C. The supernatant was removed from the pellet and stored at −80° C. or processed immediately for gel electrophoresis.
Protein concentration of the samples was quantified using the BCA method (Pierce, Rockford, Ill.) following the manufacturers protocol. Samples were added to SDS-PAGE buffer and boiled for 10 min. before loading onto a 4-12% Bis-Tris pre-cast gel (Invitrogen, Carlsbad, Calif.) for electrophoresis. Proteins were transferred onto PVDF membranes (Bio Rad, Hercules, Calif.) and blocked with AquaBlock™ (New England Biolabs, Ipswich, Mass.) for 1 hour at room temperature (RT). Primary antibody incubation was done in AquaBlock™ with rabbit anti-Met and […] phospho-Met (Tyr1234/1235) (1:1000, Cell Signaling Technology, Danvers, Mass.) overnight at 4° C. Alternating washes were done with PBS and PBST. Secondary antibody (IRDye) (Rockland, Gilbertsville, Pa.) incubations were done in AquaBlock™ for one hour at RT. Blots were imaged using LI-COR Odyssey Infrared Imaging System (LI-COR Biosciences, Lincoln, Nebr.).

Data set [1] in a line: Blood stability in heparinized rat blood. It is filed as in vitro ADME. The conditions noted are these: rat. The method, then:
At the end of each incubation, 20 μL of […]

Data set [2] can be described thus: Dihexa pharmacokinetics in rats (IV, intraperitoneal). It is filed as in vivo, rat. The protocol: Ethics approval for animal experimentation was obtained from Washington State University.
Dihexa solutions were prepared by suspending dry stock dihexa in DMSO at 1 mg/mL and subsequent serial dilutions in 50% DMSO or HPLC grade water for the final concentrations specified. Stock dihexa is kept in powder form and stored at −20° C. Quality control (QC) samples were prepared by spiking fresh rat plasma with an appropriate dilution of dihexa for the final concentration of dihexa specified, keeping a 10:1 ratio of plasma to dihexa solution (final DMSO concentration 5%). The compounds, Nle^1-Ang-IV and Nle-YI-(6) aminohexanoic amide, molecules very similar in structure and properties to dihexa, were used as internal standards and were prepared the same way.
The proteins present in the plasma samples were precipitated using three volumes of ice-cold acetonitrile. Internal standards were then added and the samples were vortexed for approximately 10 seconds. Samples were then centrifuged at 5000 RPM for 5 minutes. The supernatants were transferred to new tubes and stored until use at −20° C. Samples were then concentrated to a volume of approximately 100 ul. 200 ul HPLC grade water was added to each sample and the samples were transferred to autosampler vials.
Male Sprague Dawley rats were catheterized as described in the Animals and Surgical Procedures section. […] The typical injection volume was 200 μL yielding an initial estimated DMSO concentration in blood of 0.46%. After dosing, blood samples were collected as described in Table 7.
The blood samples were collected into polypropylene microcentrifuge tubes and cooled on ice for not more than 1 hour. The samples were centrifuged at 5000 RPM for 7 minutes and 80 μL plasma were transferred into previously prepared tubes containing 240 μL ice-cold acetonitrile. The samples were vortexed vigorously for 30 seconds and held on ice. 100 μg/mL Nle-YI-(6) aminohexanoic amide in 10 μL was used as an internal standard and added to each sample on ice.
10 μL of each serial dilution was then added to 90 μL of blank plasma for final concentrations of 0.01, 0.02, 0.05, 0.1, 0.2, 1, 10, 20, 50 and 100 μg/mL. 80 μL of each plasma sample was transferred to previously prepared tubes containing 240 μL ice-cold acetonitrile and vortexed vigorously. 10 μL containing 100 μg/mL Nle-YI-(6) aminohexanoic amide as an internal standard, was added to each sample on ice. The standard curve plasma samples were then stored at −20° C. and further processed alongside the pharmacokinetic study samples according to the method described above.
The analytical column that was used was n C18 (100 mm×2.1 mm). The mobile phase consisted of HPLC grade acetonitrile and water with 0.1% acetic acid. […] For MS analysis, a positive ion mode (SIM) was used to monitor the m/z of dihexa at […] (dihexa with the addition of a sodium adduct) and the m/z of Nle-YI-(6) aminohexanoic amide and Nle^1-AngIV (internal standards) at 513 and 541, respectively (both with sodium adducts). Samples were introduced using the autosampler and the injection volume was 50 ul. For the microsomal study, the m/z of verapamil was 455, the m/z of piroxicam was 332, and the m/z of 7-ethoxycoumarin was 191.
Pharmacokinetic analysis was performed using data from individual rats from which the mean and standard error of the mean (SEM) were calculated for each group.

[3] abbreviates: male, Sprague-Dawley, rat, plasma, IV 10 mg/kg, rats, Mean ± SEM.

For `CCCCCC(=O)N[C@@H](Cc1ccc(O)cc1)C(=O)N[C@H](C(=O)NCCCCCC(N)=O)[C@@H](C)CC` [Dihexa, N-hexanoic-Tyr-Ile-(6)-aminohexanoic amide] (Hexanoyl-Tyr-Ile-[Ahx]-NH2), the “c-Met phosphorylation vs vehicle (aCSF)” value is “increased c-Met phosphorylation; also recorded: effectively augment c-Met phosphorylation” with c-Met receptor (saturating doses: HGF 100 ng/ml, Dihexa 10^−10 M) and “not statistically different from control treated slices; also recorded: did not significantly increase c-Met receptor phosphorylation” in the data set on c-Met receptor (sub-threshold doses: HGF 50 ng/ml, Dihexa 10^−12 M). In addition, the “stable in the blood” value in data set [1] was “over 5 hours”. This molecule also showed a Cp0 in data set [2] (IV 10 mg/kg, rats, Mean ± SEM) of 87.3 ± 31.9 µg/mL. This molecule returned a KE in data set [2] (IV 10 mg/kg, rats, Mean ± SEM) of 0.00007 ± 0.00004 min⁻¹. Moreover, the half-life in data set [2] (male, Sprague-Dawley, rat, plasma, ip, 20 mg/kg, delivered intraperitoneally, Mean+/−SEM, N=4, read-out: half-life (t1/2) (converted)) is 8.83 days; in data set [2] (male, Sprague-Dawley, rat, plasma, iv, 10 mg/kg, IV 10 mg/kg, rats, Mean ± SEM, read-out: t½) it was 12.7 ± 5.41 days; in data set [2] (male, Sprague-Dawley, rat, plasma, iv, 10 mg/kg, IV administration 10 mg/kg, rats, read-out: half-life (t1/2) (converted)), 12.7 days. Further, the Vd in data set [2] (setting [3]) was 54.4 ± 14.8 L/kg. The clearance in data set [2] (setting [3]) is 2.6 ± 0.7 mL/min/kg. Moreover, the AUC(0-inf) in data set [2] (male, Sprague-Dawley, rat, plasma, IV 10 mg/kg, rats, Mean ± SEM, N = 3) was 74500 ng·h/mL.

The record behind these values is patent US9051351B2, “Hepatocyte growth factor mimics as therapeutic agents” (Washington State University, priority 2011, dated 2015).
